Source: PubChem BioAssay AID1259407 (Chemical Carcinogenesis Research Information System (CCRIS), 2018)
Active and inactive are the calls of the source. How the calls were made is not given here.

Test system: CCRIS mutagenicity, Ames/micronucleus/aberration tests
Assay: CCRIS mutagenicity studies
[1] = Test System: AMES SALMONELLA TYPHIMURIUM, Strain/Indicator: TA98, Metabolic Activation: HAMSTER, LIVER, S-9, AROCLOR 1254 (10%), Method: PREINCUBATION
[2] = Test System: AMES SALMONELLA TYPHIMURIUM, Strain/Indicator: TA98, Metabolic Activation: NONE, Method: PREINCUBATION
[3] = Test System: AMES SALMONELLA TYPHIMURIUM, Strain/Indicator: TA98, Metabolic Activation: RAT, LIVER, S-9, AROCLOR 1254 (10%), Method: PREINCUBATION
[4] = Test System: AMES SALMONELLA TYPHIMURIUM, Strain/Indicator: TA100, Metabolic Activation: HAMSTER, LIVER, S-9, AROCLOR 1254 (10%), Method: PREINCUBATION
[5] = Test System: AMES SALMONELLA TYPHIMURIUM, Strain/Indicator: TA100, Metabolic Activation: NONE, Method: PREINCUBATION
[6] = Test System: AMES SALMONELLA TYPHIMURIUM, Strain/Indicator: TA100, Metabolic Activation: RAT, LIVER, S-9, AROCLOR 1254 (10%), Method: PREINCUBATION
[7] = Test System: AMES SALMONELLA TYPHIMURIUM, Strain/Indicator: TA1535, Metabolic Activation: HAMSTER, LIVER, S-9, AROCLOR 1254 (10%), Method: PREINCUBATION
[8] = Test System: AMES SALMONELLA TYPHIMURIUM, Strain/Indicator: TA1535, Metabolic Activation: NONE, Method: PREINCUBATION
[9] = Test System: AMES SALMONELLA TYPHIMURIUM, Strain/Indicator: TA1535, Metabolic Activation: RAT, LIVER, S-9, AROCLOR 1254 (10%), Method: PREINCUBATION
[10] = Test System: AMES SALMONELLA TYPHIMURIUM, Strain/Indicator: TA1537, Metabolic Activation: HAMSTER, LIVER, S-9, AROCLOR 1254 (10%), Method: PREINCUBATION
[11] = Test System: AMES SALMONELLA TYPHIMURIUM, Strain/Indicator: TA1537, Metabolic Activation: NONE, Method: PREINCUBATION
[12] = Test System: AMES SALMONELLA TYPHIMURIUM, Strain/Indicator: TA1537, Metabolic Activation: RAT, LIVER, S-9, AROCLOR 1254 (10%), Method: PREINCUBATION
[13] = Test System: AMES SALMONELLA TYPHIMURIUM, Strain/Indicator: TA100, Metabolic Activation: NONE, Method: STANDARD PLATE

SMILES | mutagenic call [1] | mutagenic call [2] | mutagenic call [3] | mutagenic call [4] | mutagenic call [5] | mutagenic call [6] | mutagenic call [7] | mutagenic call [8] | mutagenic call [9] | mutagenic call [10] | mutagenic call [11] | mutagenic call [12] | mutagenic call [13] | further results
CCCC(=O)c1cc(O)c(O)cc1O | active; positive | inactive; negative | inactive; negative | inactive; negative | inactive; negative | active; positive | inactive; negative | inactive; negative | inactive; negative | inactive; negative | inactive; negative | active; positive | – | –
CC(C)CCC[C@@H](C)[C@H]1CC[C@H]2[C@@H]3CC=C4C[C@@H](OC(=O)Cc5ccc(N(CCCl)CCCl)cc5)CC[C@]4(C)[C@H]3CC[C@]12C | inactive; negative | inactive; negative | inactive; negative | inactive; negative | inactive; negative | inactive; negative | inactive; negative | inactive; negative | inactive; negative | inactive; negative | inactive; negative | inactive; negative | – | –
CCC(=O)Nc1snc2ccc(C)cc12 | – | – | – | – | – | – | – | – | – | – | – | – | inactive; negative | mutagenic call (Test System: AMES SALMONELLA TYPHIMURIUM, Strain/Indicator: TA100, Metabolic Activation: S-9, Method: STANDARD PLATE): inactive; negative; mutagenic call (Test System: AMES SALMONELLA TYPHIMURIUM, Strain/Indicator: TA1537, Metabolic Activation: NONE, Method: STANDARD PLATE): inactive; negative; mutagenic call (Test System: AMES SALMONELLA TYPHIMURIUM, Strain/Indicator: TA1537, Metabolic Activation: S-9, Method: STANDARD PLATE): inactive; negative
C=CCN1C2c3ccccc3-c3ccccc3C21 (stereo not given) | – | – | – | – | – | – | – | – | – | – | – | – | active; positive | mutagenic call (Test System: CHINESE HAMSTER V-79, Strain/Indicator: V-79/6-THIOGUANINE, Metabolic Activation: NONE, Method: STANDARD PLATE): active; positive
CCCCCNCCCCC | inactive; negative | inactive; negative | inactive; negative | inactive; negative | inactive; negative | inactive; negative | inactive; negative | inactive; negative | inactive; negative | inactive; negative | inactive; negative | inactive; negative | – | –
CCN(CC)c1ccc(N=Nc2ccccc2)cc1 | – | – | – | – | – | – | – | – | – | – | – | – | – | mutagenic call (Test System: AMES SALMONELLA TYPHIMURIUM, Strain/Indicator: TA98, Metabolic Activation: RAT, LIVER, MICROSOMES, 4-DIETHYLAMINOAZOBENZENE, Method: PREINCUBATION): inactive; negative; mutagenic call (Test System: AMES SALMONELLA TYPHIMURIUM, Strain/Indicator: TA98, Metabolic Activation: RAT, LIVER, MICROSOMES, AROCLOR 1254, Method: PREINCUBATION): inactive; negative; mutagenic call (Test System: AMES SALMONELLA TYPHIMURIUM, Strain/Indicator: TA98, Metabolic Activation: RAT, LIVER, MICROSOMES, Method: PREINCUBATION): inactive; negative
Cc1ccc([N+](=O)[O-])c(C)c1[N+](=O)[O-] | – | inactive; negative | – | – | – | – | – | – | – | – | – | – | – | mutagenic call (Test System: AMES SALMONELLA TYPHIMURIUM, Strain/Indicator: TA98, Metabolic Activation: RAT, LIVER, S-9, KANECHLOR 500, Method: PREINCUBATION): inactive; negative; mutagenic call (Test System: AMES SALMONELLA TYPHIMURIUM, Strain/Indicator: TA100, Metabolic Activation: RAT, LIVER, S-9, KANECHLOR 500, Method: PREINCUBATION): active; positive
CC(C)=CCOc1c2occc2cc2ccc(=O)oc12 | – | – | – | – | – | – | – | – | – | – | – | – | active; positive | mutagenic call (Test System: AMES SALMONELLA TYPHIMURIUM, Strain/Indicator: TA92, Metabolic Activation: NONE, Method: SPOT TEST): active; positive; mutagenic call (Test System: AMES SALMONELLA TYPHIMURIUM, Strain/Indicator: TA92, Metabolic Activation: RAT, LIVER, S-9, AROCLOR 1254, Method: SPOT TEST): active; positive; mutagenic call (Test System: AMES SALMONELLA TYPHIMURIUM, Strain/Indicator: TA94, Metabolic Activation: NONE, Method: SPOT TEST): inactive; negative; mutagenic call (Test System: AMES SALMONELLA TYPHIMURIUM, Strain/Indicator: TA94, Metabolic Activation: RAT, LIVER, S-9, AROCLOR 1254, Method: SPOT TEST): inactive; negative; mutagenic call (Test System: AMES SALMONELLA TYPHIMURIUM, Strain/Indicator: TA97, Metabolic Activation: NONE, Method: SPOT TEST): active; positive; mutagenic call (Test System: AMES SALMONELLA TYPHIMURIUM, Strain/Indicator: TA97, Metabolic Activation: RAT, LIVER, S-9, AROCLOR 1254, Method: SPOT TEST): active; positive; mutagenic call (Test System: AMES SALMONELLA TYPHIMURIUM, Strain/Indicator: TA98, Metabolic Activation: NONE, Method: SPOT TEST): active; positive; mutagenic call (Test System: AMES SALMONELLA TYPHIMURIUM, Strain/Indicator: TA98, Metabolic Activation: NONE, Method: STANDARD PLATE): inactive; negative; mutagenic call (Test System: AMES SALMONELLA TYPHIMURIUM, Strain/Indicator: TA98, Metabolic Activation: RAT, LIVER, S-9, AROCLOR 1254, Method: SPOT TEST): active; positive; mutagenic call (Test System: AMES SALMONELLA TYPHIMURIUM, Strain/Indicator: TA98, Metabolic Activation: RAT, LIVER, S-9, PHENOBARBITAL, Method: STANDARD PLATE): inactive; negative; mutagenic call (Test System: AMES SALMONELLA TYPHIMURIUM, Strain/Indicator: TA100, Metabolic Activation: NONE, Method: SPOT TEST): active; positive; mutagenic call (Test System: AMES SALMONELLA TYPHIMURIUM, Strain/Indicator: TA100, Metabolic Activation: RAT, LIVER, S-9, AROCLOR 1254, Method: SPOT TEST): active; positive; mutagenic call (Test System: AMES SALMONELLA TYPHIMURIUM, Strain/Indicator: TA102, Metabolic Activation: NONE, Method: SPOT TEST): inactive; negative; mutagenic call (Test System: AMES SALMONELLA TYPHIMURIUM, Strain/Indicator: TA102, Metabolic Activation: RAT, LIVER, S-9, AROCLOR 1254, Method: SPOT TEST): inactive; negative
Cc1c(N)nc([C@H](CC(N)=O)NC[C@H](N)C(N)=O)nc1C(=O)N[C@H](C(=O)N[C@H](C)[C@@H](O)[C@H](C)C(=O)N[C@H](C(=O)NCCc1nc(-c2nc(C(=O)NCCCNCCCN=C(N)CC3CCC(Cl)CC3)cs2)cs1)[C@@H](C)O)[C@@H](O[C@@H]1O[C@@H](CO)[C@@H](O)[C@H](O)[C@@H]1O[C@H]1O[C@H](CO)[C@@H](O)[C@H](OC(N)=O)[C@@H]1O)c1cnc[nH]1 (stereo not given in full) | – | – | – | – | – | – | – | – | – | – | – | – | – | mutagenic call (Test System: AMES SALMONELLA TYPHIMURIUM, Strain/Indicator: TA94, Metabolic Activation: NONE, Method: PREINCUBATION): active; positive; mutagenic call (Test System: AMES SALMONELLA TYPHIMURIUM, Strain/Indicator: TA102, Metabolic Activation: NONE, Method: PREINCUBATION): active; positive
